Results: patent US20250197425A1, “2,6,9-TRISUBSTITUTED PURINES” (ASTRAZENECA AB, priority 2022, published 2025)
In brackets after ≈: the same amount, converted by molar mass.

How the values were obtained:
[1] = target: CDK2:CCNE1 (Homo sapiens (Human), UniProt P24941); experiment: NanoBRET assay in MCF-7 cells, CDK2; type: cell-based; conditions: transfected MCF-7 cells, 2 hours, n = 1 or average
Procedure, shortened: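 In live MCF-7 cells, compound added followed by NanoBRET TE Tracer K-9 (stock 200 μM) for CDK2, 2 h at 37° C, 5% CO2.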

[2] = Aqueous thermodynamic solubility, shake-flask; type: physicochemical; conditions: aqueous phosphate buffer, 25 °C, pH 7.4, aqueous buffer, thermodynamic from solid, phosphate buffer 0.1 M, pH 7.4, 24 hours
Procedure, shortened: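 Dried compound (after DMSO evaporation) was equilibrated in 0.1 M phosphate buffer pH 7.4 with stirring for 24 h at 25° C. Undissolved material was removed by double centrifugation, and the supernatant was diluted in water and quantified by UPLC/MS/MS.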

[3] = tested on: OVCAR3 cells; experiment: Cellular proliferation EdU assay, OVCAR3; type: cell-based, human; conditions: Homo sapiens, OVCAR-3, 48 h, EdU assay, two days; read-out: OVCAR3 IC50
Procedure, shortened: (§1)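 MCF-7 (800 cells/well) and OVCAR3 (1200 cells/well) in RPMI with 10% FBS exposed to compounds for two days at 37 °C.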

[4] = target: CDK4:CCND1 (Homo sapiens (Human), UniProt P11802); experiment: NanoBRET assay in MCF-7 cells, CDK4; type: cell-based; conditions: NanoBRET, transfected MCF-7 cells, 2 hours; n = 1 or average; read-out: CDK4 IC50
Procedure, shortened: (§2)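 Transiently transfected MCF-7 cells expressing CDK1:CCNB1 or CDK4:CCND1 were treated with compound plus tracer (CDK1: Tracer K-9, 400 μM stock; CDK4: Tracer K-7, 100 μM stock) for 2 h at 37 °C.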

[5] = tested on: NPM phosphorylation (Thr199, CDK2-cyclin E complex); experiment: NPM phosphorylation imaging assay in MCF-7 cells; type: cell-based; conditions: Homo sapiens, 4N DNA cells
Procedure, shortened: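 MCF-7 cells were fixed, permeabilised and immunostained, then imaged for phospho-NPM (Thr199), a CDK2-cyclin E site. Analysis was gated on 4N-DNA cells by Hoechst staining. Signals were normalised to controls and fitted for IC50.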

[6] = target: CDK1:CCNB1 (Homo sapiens (Human), UniProt P06493); experiment: NanoBRET assay in MCF-7 cells, CDK1; type: cell-based; conditions: NanoBRET, transfected MCF-7 cells, 2 hours; n = 1 or average; read-out: CDK1 IC50
Procedure, shortened: as §2

[7] = tested on: POLR2A Ser2 phosphorylation (CDK9); experiment: POLR2A Ser2 phosphorylation imaging assay in MCF-7 cells; type: cell-based; conditions: Homo sapiens, MCF7, 2 h, MCF-7 cells, 2 hours; read-out: POLR2A Ser2 phosphorylation IC50
Procedure, shortened: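 MCF-7 cells were fixed, permeabilised and immunostained for POLR2A phospho-Ser2, then imaged by high-content microscopy. Levels were normalised to controls and IC50 values derived.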

[8] = CLint assessment in human liver microsomes (HLM); type: in vitro ADME; conditions: 1 μM
Description: After a preincubation with NADPH for 8 minutes, reactions were initiated through the addition of the test compound (final volume 250 μl) and incubated at 37° C. in a water bath for 30 minutes. […] Samples were shaken at 800 rpm for 2 minutes and centrifuged at 4000 rpm for 20 minutes at 4° C. to pellet precipitated protein. The supernatant fraction was diluted 1:5 with deionized water, shaken at 1000 rpm for 2 minutes, and further diluted 1:1 with deionized water. Samples were analyzed by LC-MS/MS. The t1/2 and the CLint of the compounds incubated in the LM, HLM, and HμREL assays as described above were calculated according to the following equations: […] where V (μl/×10^6 cells or mg protein) is the incubation volume (μl) divided by the number of cells (×10^6) or microsomal protein content (mg) in the incubation.

[9] = tested on: MCF-7 cells; experiment: Cellular proliferation EdU assay, MCF-7; type: cell-based; conditions: Homo sapiens, MCF7, 48 h, EdU assay, two days; read-out: MCF-7 IC50
Procedure, shortened: as §1

CDK4:CCND1, sequence (P11802 whole entry): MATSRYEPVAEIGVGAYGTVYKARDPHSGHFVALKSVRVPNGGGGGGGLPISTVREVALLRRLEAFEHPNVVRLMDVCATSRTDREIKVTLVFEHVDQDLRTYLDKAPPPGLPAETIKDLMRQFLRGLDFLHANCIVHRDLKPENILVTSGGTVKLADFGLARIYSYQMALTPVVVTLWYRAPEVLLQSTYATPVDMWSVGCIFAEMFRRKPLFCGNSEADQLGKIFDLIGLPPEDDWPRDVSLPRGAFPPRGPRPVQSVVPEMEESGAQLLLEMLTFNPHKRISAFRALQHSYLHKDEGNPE
CDK4:CCND1, sequence (P24385 whole entry partner): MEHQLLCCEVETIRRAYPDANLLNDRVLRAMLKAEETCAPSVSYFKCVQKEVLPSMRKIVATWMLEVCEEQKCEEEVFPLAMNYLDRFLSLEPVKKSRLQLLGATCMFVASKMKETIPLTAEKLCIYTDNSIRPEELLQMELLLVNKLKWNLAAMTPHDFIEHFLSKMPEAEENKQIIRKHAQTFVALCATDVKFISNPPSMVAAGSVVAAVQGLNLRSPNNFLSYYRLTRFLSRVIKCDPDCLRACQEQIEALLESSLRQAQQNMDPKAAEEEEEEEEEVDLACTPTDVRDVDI
CDK1:CCNB1, sequence (P06493 whole entry): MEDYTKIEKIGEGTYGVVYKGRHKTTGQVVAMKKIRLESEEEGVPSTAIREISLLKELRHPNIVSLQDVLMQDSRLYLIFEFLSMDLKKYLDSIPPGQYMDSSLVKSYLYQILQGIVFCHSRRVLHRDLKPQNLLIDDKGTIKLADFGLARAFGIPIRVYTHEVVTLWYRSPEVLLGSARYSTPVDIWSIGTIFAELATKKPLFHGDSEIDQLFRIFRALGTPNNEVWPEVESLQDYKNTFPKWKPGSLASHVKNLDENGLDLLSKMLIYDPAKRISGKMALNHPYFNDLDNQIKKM
CDK1:CCNB1, sequence (P14635 whole entry partner): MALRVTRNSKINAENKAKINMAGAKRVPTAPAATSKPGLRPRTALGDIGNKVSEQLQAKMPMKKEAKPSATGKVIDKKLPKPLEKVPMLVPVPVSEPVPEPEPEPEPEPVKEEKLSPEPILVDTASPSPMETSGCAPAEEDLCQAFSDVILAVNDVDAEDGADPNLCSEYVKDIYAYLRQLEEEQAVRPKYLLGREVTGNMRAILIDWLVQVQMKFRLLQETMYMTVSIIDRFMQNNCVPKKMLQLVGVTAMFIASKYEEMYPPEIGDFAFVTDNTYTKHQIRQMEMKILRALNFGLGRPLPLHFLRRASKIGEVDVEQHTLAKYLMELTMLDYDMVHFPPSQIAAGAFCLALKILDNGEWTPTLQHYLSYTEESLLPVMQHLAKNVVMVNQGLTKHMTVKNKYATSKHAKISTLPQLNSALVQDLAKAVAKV

## CC[C@H](Nc1nc(N[C@H]2CCN(S(N)(=O)=O)C2)c2ncn(CC)c2n1)[C@@H](C)O [Example 9, (S)-3-((9-ethyl-2-(((2R,3S)-2-hydroxypentan-3-yl)amino)-9H-purin-6-yl)amino)pyrrolidine-1-sulfonamide]
[1]
  IC50: 100 nM
[2]
  solubility at 24 h: > 1000 µM
[3]
  IC50: 486 nM
[4]
  IC50: 20200 nM
[5]; MCF7, 2 h
  IC50: 432 nM
[6]
  IC50: 2210 nM
[7]
  IC50: > 30000 nM
[8]
  HLM CLint: 13.4 µL/min/mg
[9]
  IC50: 1060 nM

## CC(C)[C@H](CO)Nc1nc(N[C@@H]2CN(S(C)(=O)=O)C[C@H]2C)c2ncn(C(C)C)c2n1 [Example 36, (R)-2-((9-isopropyl-6-(((3S,4R)-4-methyl-1-(methylsulfonyl)-pyrrolidin-3-yl)amino)-9H-purin-2-yl)amino)-3-methylbutan-1-ol]
[1]
  IC50: 50 nM
[2]
  solubility at 24 h: 11.1 µM (≈ 4.88 µg/mL)
[3]
  IC50: 1250 nM
[4]
  IC50: > 29700 nM
[5]; MCF7, 2 hours
  IC50: 1230 nM
[6]
  IC50: 2020 nM
[7]
  IC50: > 30000 nM
[8]
  HLM CLint: >300 µL/min/mg
[9]
  IC50: 3010 nM

## CC[C@H](Nc1nc(N[C@@H]2CN(S(=O)(=O)c3ncc[nH]3)C[C@H]2F)c2ncn(C)c2n1)[C@@H](C)O (relative stereo) [Example 56, (2R,3S)-3-((6-(((3R*,4R*)-1-((1H-imidazol-2-yl)sulfonyl)-4-fluoropyrrolidin-3-yl)amino)-9-methyl-9H-purin-2-yl)amino)pentan-2-ol]
[1]
  IC50: 69 nM
[2]
  solubility at 24 h: > 1000 µM
[3]
  IC50: 519 nM
[4]
  IC50: 22000 nM
[5]; MCF7, 2 h
  IC50: 299 nM
[6]
  IC50: 1500 nM
[7]
  IC50: 23900 nM
[8]
  HLM CLint: 39.8 µL/min/mg
[9]
  IC50: 1180 nM

## CCn1cnc2c(N[C@H]3CCN(S(=O)(=O)NC)C3)nc(N[C@@H]3c4ccccc4C[C@@H]3O)nc21 [Example 51, (S)-3-((9-ethyl-2-(((1R,2S)-2-hydroxy-2,3-dihydro-1H-inden-1-yl)amino)-9H-purin-6-yl)amino)-N-methylpyrrolidine-1-sulfonamide]
[1]
  IC50: 32 nM
[2]
  solubility at 24 h: 35 µM (≈ 16.5 µg/mL)
[3]
  IC50: 324 nM
[4]
  IC50: 1900 nM
[5]; MCF7, 2 h
  IC50: 157 nM
[6]
  IC50: 532 nM
[7]
  IC50: 7400 nM
[8]
  HLM CLint: 212 µL/min/mg
[9]
  IC50: 536 nM

## CC(C)[C@H](CO)Nc1nc(N[C@H]2CCN(S(=O)(=O)C3CC3)C2)c2ncn(C(C)C)c2n1 [Example 27, (R)-2-((6-(((S)-1-(cyclopropylsulfonyl)pyrrolidin-3-yl)amino)-9-isopropyl-9H-purin-2-yl)amino)-3-methylbutan-1-ol]
[1]
  IC50: 11 nM
[2]
  solubility at 24 h: 39.8 µM (≈ 18 µg/mL)
[3]
  IC50: 337 nM
[4]
  IC50: 3400 nM
[5]; MCF7, 2 hours
  IC50: 267 nM
[6]
  IC50: 1420 nM
[7]
  IC50: > 30000 nM
[8]
  HLM CLint: >300 µL/min/mg
[9]
  IC50: 839 nM

## CC(C)[C@H](CO)Nc1nc(N[C@H]2CCN(S(C)(=O)=O)C2)c2ncn(C3CC3)c2n1 [Example 29, (R)-2-((9-cyclopropyl-6-(((S)-1-(methylsulfonyl)pyrrolidin-3-yl)amino)-9H-purin-2-yl)amino)-3-methylbutan-1-ol]
[1]
  IC50: 90 nM
[2]
  solubility at 24 h: 71.2 µM (≈ 30.2 µg/mL)
[3]
  IC50: 1380 nM
[4]
  IC50: > 29700 nM
[5]; MCF7, 2 h
  IC50: 2190 nM
[6]
  IC50: 3700 nM
[7]
  IC50: > 30000 nM
[8]
  HLM CLint: 90.5 µL/min/mg
[9]
  IC50: 2420 nM

## CC[C@@H](CO)Nc1nc(N[C@H]2CCN(S(=O)(=O)NC)C2)c2ncn(CC)c2n1 [Example 48, (S)-3-((9-ethyl-2-(((S)-1-hydroxybutan-2-yl)amino)-9H-purin-6-yl)-amino)-N-methylpyrrolidine-1-sulfonamide]
[1]
  IC50: 123 nM
[2]
  solubility at 24 h: > 1000 µM
[3]
  IC50: 2350 nM
[4]
  IC50: > 23800 nM
[5]; MCF7, 2 h
  IC50: 1300 nM
[6]
  IC50: 5550 nM
[7]
  IC50: > 30000 nM
[8]
  HLM CLint: 13.3 µL/min/mg
[9]
  IC50: 3330 nM
